{"source": "paper PMC8252455", "about": "“Prediction of a clinically effective dose of THY1773, a novel V 1B receptor antagonist, based on preclinical data” (Biopharmaceutics & Drug Disposition, 2021)", "key": {"[1]": {"assay": "Phase 1 single ascending dose study of TS-121 capsules", "format": "in vivo, human", "description": "(§1) The plasma concentration–time profiles of THY1773 were analyzed by a non‐compartmental analysis with PK analysis software Phoenix WinNonlin® (version 6.1; Certara), and the PK parameters were calculated. The fraction excreted in urine was calculated by dividing the amount of THY1773 excreted in urine by the administered dose.\nA first‐in‐human, randomized, double‐blind, placebo‐controlled, adaptive, single‐ascending dose study was conducted to evaluate the safety, tolerability, and PK of single oral doses of TS‐121 capsules in the United States. This study was conducted in accordance with the ethical principles of the Declaration of Helsinki, International Council for Harmonization Good Clinical Practice Guidelines, and the United States Food and Drug Administration Code of Federal Regulations. The study was approved by an institutional ethical review board. All subjects provided written informed consent before participating in the study. Sixty‐eight healthy male or female volunteers were enrolled and received a single oral dose of either TS‐121 capsules (0.5, 2.5, 4, 8, 15, 30, or 50 mg as THY1773/day) or placebo in a 3:1 ratio in a fasted state.\nBlood samples were collected at predose and 0.25, 0.5, 0.75, 1, 1.5, 2, 3, 4, 6, 8, 10, 12, 24, 36, and 48 h postdose. Urine samples were collected before dosing and at the following time intervals after dosing: 0–6, 6–12, 12–24, 24–36, and 36–48 h. THY1773 plasma and urine concentrations were determined by validated LC‐MS/MS methods. PK parameters were evaluated following the method as described in Section 2.5 PK analysis."}, "[2]": {"assay": "Plasma protein binding by equilibrium dialysis, rat plasma", "format": "in vitro ADME", "conditions": "300 ng/ml", "description": "The plasma protein binding of THY1773 in rats, dogs, and humans was evaluated by an equilibrium dialysis method using a 96‐well equilibrium dialysis plate (HTDialysis) with a 12–14 kDa cut‐off dialysis membrane. THY1773 was dissolved in dimethyl sulfoxide, and spiked with rat, dog, or human plasma at a final concentration of 300 ng/ml. An aliquot of plasma containing THY1773 and sodium phosphate buffer (pH 7.4) was added into the donor side and the receiver side of each designated well, respectively. After incubation for 6 h at a rate of 50 oscillation/min at 37°C in an air incubator, an aliquot of each side of each well was collected and mixed with acetonitrile/methanol (9:1, vol/vol) containing the IS. Each sample was centrifuged at 3974 × g for 10 min at 4°C to remove the precipitated proteins, and the resultant supernatants were subjected to LC‐MS/MS analysis. The protein binding (%) was calculated using the Boudinot formula (Boudinot & Jusko, 1984)."}, "[3]": {"assay": "Blood-to-plasma ratio in rat whole blood", "format": "in vitro ADME", "conditions": "1 μmol/L", "description": "(§2) The blood‐to‐plasma ratios of THY1773 were analyzed using pooled fresh whole blood (anticoagulant: EDTA‐2K) and control plasma separated from fresh whole blood in parallel from rats, dogs, and humans. Whole blood and control plasma containing 1 μmol/L THY1773 were incubated at 37°C for 30 min in a shaking water bath. The incubated whole blood was centrifuged at 2000 × g for 10 min at 4°C to obtain plasma. An aliquot of each plasma sample (i.e., isolated plasma from incubated whole blood and control plasma) was mixed with 8 volumes of acetonitrile/methanol (9:1, vol/vol) containing the IS. After centrifugation at 3974 × g for 10 min at 4°C, the supernatant was subjected to liquid chromatography/tandem mass spectrometry (LC‐MS/MS) analysis. The blood‐to‐plasma ratio was calculated by dividing the […]."}, "[4]": {"assay": "Blood-to-plasma ratio in human whole blood", "format": "in vitro ADME", "conditions": "1 μmol/L", "description": "as §2"}, "[5]": {"assay": "PK and urinary excretion in rats", "format": "in vivo, rat", "description": "(§3) The PK and urinary excretion of THY1773 in rats (1 mg/kg) and dogs (0.5 mg/kg) under fasted conditions were evaluated following intravenous or oral administration of THY1773. THY1773 was dissolved in 10% (vol/vol) hydroxypropyl‐β‐cyclodextrin at pH 4 for intravenous administration, or suspended in 0.5% (wt/vol) methyl cellulose 400 for oral administration. After a single intravenous or oral administration of THY1773, blood samples were collected into tubes containing EDTA‐2K as an anticoagulant. The scheduled time points were predose (dog only), 5 (intravenous only), 15, 30 min, 1, 2, 4, 8, 12, and 24 h postdose. Plasma was separated by centrifugation. Urine samples were collected into bottles set on ice for 24 h after intravenous administration of THY1773. Plasma and urine samples were treated with 4 volumes of acetonitrile/methanol (9:1, vol/vol) containing the IS. After centrifugation (3639 × g, 4°C, 10 min) to remove precipitated proteins, the supernatant was subjected to LC‐MS/MS analysis. The distributions of THY1773 into brain and pituitary gland in rats were investigated after a single oral administration of THY1773 (1 mg/kg). Blood was collected from the tail vein into tubes containing EDTA‐2K at 1 h after a single oral administration of THY1773, and the plasma was separated by centrifugation (12000 × g, 4°C, 3 min). After blood collection, the brain and pituitary gland were excised followed by homogenization with approximately 4 volumes of distilled water. Plasma, brain, and pituitary samples were treated with 4 volumes of acetonitrile/methanol (9:1, vol/vol) containing the IS and centrifuged (3639 × g, 4°C, 10 min). Aliquots of the supernatant were subjected to LC‐MS/MS analysis.\nas §1"}, "[6]": {"test_system": "major CYP isoforms", "assay": "In vitro CYP inhibition or induction potential", "format": "in vitro ADME", "conditions": "data not shown"}, "[7]": {"test_system": "anterior pituitary V1B receptor", "design": "method as in Kamiya et al., 2020", "conditions": "rats; ref Kamiya et al., 2020; cited from earlier work"}, "[8]": {"assay": "Distribution into brain and pituitary gland in rats", "format": "in vivo, rat", "conditions": "1 h after oral 1 mg/kg", "description": "as §3, with “After blood collection, the brain and pituitary gland were excised followed by homogenization with approximately 4 volumes of distilled water. Plasma, brain, and pituitary samples were treated with 4 volumes of acetonitrile/methanol (9:1, vol/vol) containing the IS and centrifuged (3639 × g, 4°C, 10 min). Aliquots of the supernatant were subjected to LC‐MS/MS analysis.” left out"}, "[9]": {"conditions": "human, average over dose range 0.5 to 50 mg"}, "[10]": {"conditions": "human, single oral 30 mg, fasted, mean"}, "[11]": {"conditions": "male rats, iv 1 mg/kg, mean (%CV), n=3"}, "[12]": {"conditions": "male rats, po 1 mg/kg, mean (%CV), n=3"}}, "note": "Where “and” joins values, the source holds several entries; their conditions need not be identical. Equal values may be shown once.", "data": [{"smiles": "CC(C)NC(=O)Cn1c(-c2cccc(Cl)c2)nn(-c2ccc(CCN3CCOCC3)cc2)c1=O", "note": "[THY1773]", "values": [{"measurement": "Observed CLrenal compared with predicted value", "setting": "[1]; human", "value": "lower than the predicted value"}, {"measurement": "Observed oral blood CL as share of hepatic blood flow", "setting": "[1]; human", "value": "2.6 % of the hepatic blood flow"}, {"measurement": "Apparent volume of distribution during the terminal phase", "setting": "[1]; [9]", "value": 40.6, "unit": "L"}, {"measurement": "Oral CLtotal", "setting": "[1]; [9]", "value": 1.32, "unit": "L/h"}, {"measurement": "Dose linearity of PK", "setting": "[1]; human, dose range 0.5–50 mg", "value": "linear PK"}, {"measurement": "AUC0‐∞", "setting": "[1]; [10]", "value": 21340, "unit": "ng·h/mL"}, {"measurement": "CLpo", "setting": "[1]; [10]", "value": 1.52, "unit": "L/h"}, {"measurement": "Cmax", "setting": "[1]; [10]", "value": 949, "unit": "ng/mL"}, {"measurement": "Vdz/F", "setting": "[1]; [10]", "value": 43.6, "unit": "L"}, {"measurement": "tmax", "setting": "[1]; human, single oral 30 mg, fasted, median", "value": "1.3 h and 1.27 h"}, {"measurement": "Urinary excretion of unchanged drug", "setting": "[1]; human, within 48 h post oral dosing, average over dose range", "value": 4.2, "unit": "%"}, {"measurement": "Observed human CLtotal/F", "setting": "[1]; oral, phase 1 study", "value": 17.2, "unit": "mL/h/kg"}, {"measurement": "Observed human Vdz/F", "setting": "[1]; oral, phase 1 study", "value": 528, "unit": "mL/kg"}, {"measurement": "Plasma protein binding", "setting": "[2]", "value": 89.2, "unit": "%"}, {"measurement": "Blood-to-plasma ratio", "setting": "[3]", "value": 0.822}, {"measurement": "Blood-to-plasma ratio", "setting": "[4]", "value": "Theoretical limit (experimental data: 0.54)"}, {"measurement": "AUC0‐∞", "setting": "[5]; [11]", "value": "762 (14.9) h·ng/ml"}, {"measurement": "CLtotal", "setting": "[5]; [11]", "value": "1330 (13.7) ml/h/kg"}, {"measurement": "Vdss", "setting": "[5]; [11]", "value": "2220 (5.7) ml/kg"}, {"measurement": "t1/2", "setting": "[5]; [11]", "value": "1.38 (2.3) h"}, {"measurement": "F (oral bioavailability)", "setting": "[5]; male rats, po 1 mg/kg, 1 mg/kg", "value": 46.6, "unit": "%"}, {"measurement": "AUC0‐∞", "setting": "[5]; [12]", "value": "355 (13.5) h·ng/ml"}, {"measurement": "Cmax", "setting": "[5]; [12]", "value": "136 (11.8) ng/ml"}, {"measurement": "t1/2", "setting": "[5]; [12]", "value": "1.45 (5.5) h"}, {"measurement": "tmax", "setting": "[5]; [12]", "value": "0.833 (34.6) h"}, {"measurement": "CLrenal compared with fu × GFR", "setting": "[5]; rats", "value": "comparable to fu × GFR"}, {"measurement": "CLtotal as share of hepatic blood flow", "setting": "[5]; rats, single intravenous administration", "value": "approximately 30 % of hepatic blood flow"}, {"measurement": "Urinary excretion of unchanged drug", "setting": "[5]; rats, within 24 h post intravenous dosing", "value": 4.6, "unit": "%"}, {"measurement": "In vitro inhibition or induction potential on major CYP isoforms", "setting": "[6]", "value": "did not have any apparent in vitro inhibition or induction potential"}, {"measurement": "Occupancy of anterior pituitary V1B receptor after oral administration", "setting": "[7]", "value": "dose‐dependently"}, {"measurement": "Concentration ratio of brain to plasma", "setting": "[8]", "value": 0.2}, {"measurement": "Concentration ratio of pituitary gland to plasma", "setting": "[8]", "value": 4.7}]}]}
